Assays:
Fusarium graminearum = test: Antifungal activity against Fusarium graminearum at 150 uM; type: functional
Sclerotinia sclerotiorum [1] = test: Antifungal activity against Sclerotinia sclerotiorum at 150 uM; type: functional
Rhizoctonia solani [2] = test: Antifungal activity against Rhizoctonia solani at 150 uM; type: functional
Phytophthora capsici = test: Antifungal activity against Phytophthora capsici at 150 uM; type: functional
Botrytis cinerea = test: Antifungal activity against Botrytis cinerea at 150 uM; type: functional
Sclerotinia sclerotiorum [3] = test: Antifungal activity against Sclerotinia sclerotiorum
Rhizoctonia solani [4] = test: Antifungal activity against Rhizoctonia solani

**Q.** Which results are given for CC1(C)CCC[C@]2(C)[C@H]3Cc4c(O)c(O)cc(C=O)c4[C@]3(C)CC[C@@H]12?
**A.** Activity (Fusarium graminearum): 55%; Activity (Sclerotinia sclerotiorum [1]): 28%; Activity (Rhizoctonia solani [2]): 43%; Activity (Phytophthora capsici): 29%; Activity (Botrytis cinerea): 33%

**Q.** What does the source list for CC1(C)CCC[C@]2(C)[C@H]3Cc4c(ccc(O)c4O)[C@]3(C)CC[C@@H]12?
**A.** Activity (Fusarium graminearum): 71%; Activity (Sclerotinia sclerotiorum [1]): 63%; Activity (Rhizoctonia solani [2]): 62%; Activity (Phytophthora capsici): 60%; Activity (Botrytis cinerea): 43%

**Q.** Which results are given for CC1(C)CCC[C@]2(C)[C@H]3Cc4cc(O)ccc4O[C@]3(C)CC[C@@H]12?
**A.** EC50 (Sclerotinia sclerotiorum [3]): 29 µM; EC50 (Rhizoctonia solani [4]): 16 µM

**Q.** With CCc1cc(O)c(O)c2c1[C@]1(C)CC[C@H]3C(C)(C)CCC[C@]3(C)[C@H]1C2 as the compound, how does the Activity (Fusarium graminearum) read?
**A.** 53%

**Q.** And the Activity (Sclerotinia sclerotiorum [1])?
**A.** 37%

**Q.** What about the Activity (Rhizoctonia solani [2]) of the same compound?
**A.** 41%

**Q.** What about the Activity (Phytophthora capsici) of the same compound?
**A.** 32%

**Q.** And the Activity (Botrytis cinerea)?
**A.** 37%

**Q.** For Cc1cc2c(cc1O)C[C@@H]1[C@@]3(C)CCCC(C)(C)[C@@H]3CC[C@@]21C, which Activity (Fusarium graminearum) is on record?
**A.** 32%

**Q.** And the Activity (Sclerotinia sclerotiorum [1])?
**A.** 31%

**Q.** What about the Activity (Rhizoctonia solani [2]) of the same compound?
**A.** 58%

**Q.** What about the Activity (Phytophthora capsici) of the same compound?
**A.** 9%

**Q.** And the Activity (Botrytis cinerea)?
**A.** 24%

**Q.** How did the Activity (Fusarium graminearum) turn out when COC(=O)c1cc(O)c(O)c2c1[C@]1(C)CC[C@H]3C(C)(C)CCC[C@]3(C)[C@H]1C2 [PELOROL] was run?
**A.** 62%

**Q.** And the Activity (Sclerotinia sclerotiorum [1])?
**A.** 75%

**Q.** What about the EC50 (Sclerotinia sclerotiorum [3]) of the same compound?
**A.** 49 µM

**Q.** And the EC50 (Rhizoctonia solani [4])?
**A.** 7.7 µM

**Q.** What about the Activity (Rhizoctonia solani [2]) of the same compound?
**A.** 87%

**Q.** And the Activity (Phytophthora capsici)?
**A.** 40%

**Q.** And the Activity (Botrytis cinerea)?
**A.** 52%

**Q.** Which Activity (Fusarium graminearum) does the source give for CC1(C)CCC[C@]2(C)[C@H]3Cc4cc(O)cc(O)c4[C@]3(C)CC[C@@H]12 here?
**A.** 60%

**Q.** And the Activity (Sclerotinia sclerotiorum [1])?
**A.** 43%

**Q.** And the Activity (Rhizoctonia solani [2])?
**A.** 68%

**Q.** And the Activity (Phytophthora capsici)?
**A.** 65%

**Q.** And the Activity (Botrytis cinerea)?
**A.** 39%

**Q.** For C[C@H]1CC[C@H]2C(C)(C)CCC[C@]23Oc2ccc(O)cc2C[C@]13C [AUREOL], which EC50 (Sclerotinia sclerotiorum [3]) is on record?
**A.** 19 µM

**Q.** What about the EC50 (Rhizoctonia solani [4]) of the same compound?
**A.** 6.9 µM

**Q.** How did the Activity (Fusarium graminearum) turn out when CC1(C)CCC[C@]2(C)[C@H]3Cc4c(O)c(O)cc(C(=O)O)c4[C@]3(C)CC[C@@H]12 was run?
**A.** 51%

**Q.** And the Activity (Sclerotinia sclerotiorum [1])?
**A.** 76%

**Q.** What about the EC50 (Sclerotinia sclerotiorum [3]) of the same compound?
**A.** 26 µM

**Q.** And the EC50 (Rhizoctonia solani [4])?
**A.** 18 µM

**Q.** What about the Activity (Rhizoctonia solani [2]) of the same compound?
**A.** 73%

**Q.** What about the Activity (Phytophthora capsici) of the same compound?
**A.** 55%

**Q.** What about the Activity (Botrytis cinerea) of the same compound?
**A.** 56%

**Q.** Which Activity (Fusarium graminearum) does the source give for CC1(C)CCC[C@]2(C)[C@H]3Cc4c(cc(C=O)c(O)c4O)[C@]3(C)CC[C@@H]12 here?
**A.** 37%

**Q.** What about the Activity (Sclerotinia sclerotiorum [1]) of the same compound?
**A.** 34%

**Q.** And the Activity (Rhizoctonia solani [2])?
**A.** 3%

**Q.** And the Activity (Phytophthora capsici)?
**A.** 3%

**Q.** And the Activity (Botrytis cinerea)?
**A.** 15%

**Q.** Which results are given for Cc1cc(O)c(O)c2c1[C@]1(C)CC[C@H]3C(C)(C)CCC[C@]3(C)[C@H]1C2?
**A.** Activity (Fusarium graminearum): 42%; Activity (Sclerotinia sclerotiorum [1]): 49%; Activity (Rhizoctonia solani [2]): 50%; Activity (Phytophthora capsici): 59%; Activity (Botrytis cinerea): 70%

**Q.** With CC1(C)CCC[C@]2(C)[C@H]3Cc4cc(O)ccc4[C@]3(C)CC[C@@H]12 as the compound, how does the Activity (Fusarium graminearum) read?
**A.** 37%

**Q.** And the Activity (Sclerotinia sclerotiorum [1])?
**A.** 51%

**Q.** And the EC50 (Sclerotinia sclerotiorum [3])?
**A.** > 150 µM

**Q.** And the EC50 (Rhizoctonia solani [4])?
**A.** 34 µM

**Q.** And the Activity (Rhizoctonia solani [2])?
**A.** 62%

**Q.** What about the Activity (Phytophthora capsici) of the same compound?
**A.** 33%

**Q.** And the Activity (Botrytis cinerea)?
**A.** 34%

**Q.** For Cc1cc(O)cc2c1[C@]1(C)CC[C@H]3C(C)(C)CCC[C@]3(C)[C@H]1C2, which Activity (Fusarium graminearum) is on record?
**A.** 11%

**Q.** And the Activity (Sclerotinia sclerotiorum [1])?
**A.** 11%

**Q.** And the Activity (Rhizoctonia solani [2])?
**A.** 16%

**Q.** And the Activity (Phytophthora capsici)?
**A.** 5%

**Q.** What about the Activity (Botrytis cinerea) of the same compound?
**A.** 7%

From ChEMBL document CHEMBL5385952, “Facile Synthesis and First Antifungal Exploration of Tetracyclic Meroterpenoids: (+)-Aureol, (-)-Pelorol, and Its Analogs” (J Nat Prod, 2024)
